Measurements as given in article PMC4764553, “Human cytomegalovirus IE1 protein alters the higher-order chromatin structure by targeting the acidic patch of the nucleosome” (eLife, 2016).
Residues, ends and D or L forms follow the SMILES beside them.

Columns and labels:
[1] = tested on: 30-nm chromatin fiber; experiment: AUC sedimentation velocity of 30-nm chromatin fiber (with H1); assay type: biochemical, human; conditions: 12 x 177 bp 601 array with H1, […], peptide/protein to NCP 5:1 molar ratio, 10 mM HEPES pH 8.0, 0.1 mM EDTA, listed as LANA-CTD
Experimental: (§1) Recombinant human core histones were prepared as described above. Linker histone H1.4 and DNA templates of 12 tandem 177 bp repeats of the 601 sequence were cloned and purified, and reconstituted into chromatin as previously described ([Chen et al., 2013]; [Dyer et al., 2003]; [Li et al., 2010]; [Song et al., 2014]).
(§2) The reconstituted chromatin samples were subject to AUC analysis in a buffer containing 10 mM HEPES, pH 8.0 and 0.1 mM EDTA.

[2] = molecular target: T1, human NCP carrying the E56R mutation of histone H2A (Homo sapiens, UniProt P04908+P06899+P62805+P68431, E57R); experiment: ITC measurement of peptide binding to NCP reconstituted with H2A E56R mutant; conditions: 20°C, 10 mM Tris-HCl pH 7.5, 50 mM NaCl, Figure 3
T1 construct: made in house; host or cells: E. coli BL21(DE3)-RIL

[3] = tested on: 10-nm nucleosomal array; experiment: AUC sedimentation velocity of 10-nm nucleosomal array (without H1); assay type: biochemical, human; conditions: 12 x 177 bp 601 array without H1, […], peptide to NCP 5:1 molar ratio, 10 mM HEPES pH 8.0, 0.1 mM EDTA, array alone Save 36 ± 1 S, listed as LANA-CTD
Experimental: as §1, §2

[4] = tested on: nucleosomal arrays; conditions: folding of nucleosomal arrays induced by magnesium ions; ref Chodaparambil et al., 2007; cited from earlier work
Excerpt: For the purpose of dissecting the functions of individual NCP binding partners, one would ideally like to be able to isolate histone mutants that affect the binding of one protein but not others. The most promising such sites appear to lie in zone II and III, as they are less frequently occupied among known NCP binding proteins (Figure 2). […] Nevertheless, the identification of the E56R variant of histone H2A as an IE1-noninteracting mutant has already se ...

[5] = molecular target: T2, NCP (nucleosome core particle) (Homo sapiens, UniProt P04908+P06899+P62805+P68431); experiment: biochemical; assay type: binding
T2 construct: made in house; host or cells: E. coli BL21(DE3)-RIL

[6] = molecular target: T2, NCP (nucleosome core particle); experiment: ITC measurement of full-length IE1, IE1-CTD and IE1ΔCTD binding to NCP at 150 mM NaCl

With `CSCC[C@H](NC(=O)CNC(=O)[C@@H]1CCCN1)C(=O)N[C@@H](CCCNC(=N)N)C(=O)N[C@@H](CC(C)C)C(=O)N[C@@H](CCCNC(=N)N)C(=O)N[C@@H](CO)C(=O)NCC(=O)N[C@@H](CCCNC(=N)N)C(=O)N[C@@H](CO)C(=O)N[C@H](C(=O)NCC(=O)N[C@@H](C)C(=O)N1CCC[C@H]1C(=O)O)[C@@H](C)O` [LANA] (H-PGMRLRSGRSTGAP-OH; N-terminus and C-terminus assumed) as the molecule, how does the “effect on folding of 30-nm chromatin fiber (in words)” value [1] read?
Its value is “does not affect the folding of the 30-nm chromatin fiber”.

And the “N (ITC), H2A E56R NCP” value [2]?
Its value is 2.03.

What about the “effect on 10-nm nucleosomal array (in words)” value [3] of the same molecule?
Its value is “slightly affected”.

And the “compaction of nucleosomal arrays (in words)” value [4]?
Its value is “promotes the compaction of nucleosomal arrays”.

And the “N (ITC)” value ([5]; ITC, 20°C, 10 mM Tris-HCl pH 7.5, 50 mM NaCl, human NCP, Figure 3)?
The value was 1.97.

Which Kd [5] does the source give for `CSCC[C@H](NC(=O)[C@@H]1CCCN1C(=O)[C@H](C)NC(=O)[C@@H](NC(=O)[C@H](CO)NC(=O)[C@H](CCCCN)NC(=O)CNC(=O)CN)[C@@H](C)O)C(=O)N[C@H](C(=O)N[C@H](C(=O)N[C@@H](CCCNC(=N)N)C(=O)N[C@@H](CO)C(=O)N[C@@H](CCCCN)C(=O)N[C@@H](C)C(=O)N[C@@H](CC(=O)O)C(=O)N[C@@H](CCC(N)=O)C(=O)O)[C@@H](C)O)C(C)C` [H481A] (H-GGKSTAPMVTRSKADQ-OH) here?
The Kd was 43.4 ± 5.36 µM.

Which Kd [5] does the source give for `CSCC[C@H](NC(=O)[C@@H]1CCCN1C(=O)[C@@H](N)Cc1c[nH]cn1)C(=O)N[C@H](C(=O)N[C@H](C(=O)N[C@@H](CCCNC(=N)N)C(=O)N[C@@H](CO)C(=O)N[C@@H](CCCCN)C(=O)N[C@@H](C)C(=O)N[C@@H](CC(=O)O)C(=O)N[C@@H](CCC(N)=O)C(=O)O)[C@@H](C)O)C(C)C` [Δ476–480] (H-HPMVTRSKADQ-OH) here?
Its Kd is 12.1 ± 0.45 µM.

Which results are given for `CSCC[C@H](NC(=O)[C@@H]1CCCN1C(=O)[C@H](Cc1c[nH]cn1)NC(=O)[C@@H](NC(=O)[C@H](CO)NC(=O)[C@H](CCCCN)NC(=O)CNC(=O)CN)[C@@H](C)O)C(=O)N[C@H](C(=O)N[C@H](C(=O)N[C@@H](CCCNC(=N)N)C(=O)N[C@@H](CO)C(=O)N[C@@H](CCCCN)C(=O)N[C@@H](C)C(=O)N[C@@H](CC(=O)O)C(=O)N[C@@H](CCC(N)=O)C(=O)O)[C@@H](C)O)C(C)C` [IE1-CTD]?
Kd [5]: 0.42 ± 0.04 µM; Kd [6]: 2.25 ± 0.1 µM

Which Kd [5] does the source give for `CSCC[C@H](NC(=O)[C@@H]1CCCN1C(=O)[C@H](Cc1c[nH]cn1)NC(=O)[C@@H](NC(=O)[C@H](CO)NC(=O)[C@H](CCCCN)NC(=O)CNC(=O)CN)[C@@H](C)O)C(=O)N[C@H](C(=O)N[C@H](C(=O)N[C@@H](CCCNC(=N)N)C(=O)N[C@@H](CO)C(=O)N[C@@H](CCCCN)C(=O)N[C@@H](C)C(=O)N[C@@H](CC(=O)O)C(=O)N[C@@H](CCC(N)=O)C(=O)O)C(C)C)C(C)C` [T485V] (H-GGKSTHPMVVRSKADQ-OH) here?
The Kd was 11.3 ± 0.73 µM.
